This note sets out measurements from patent US20240043386A1, “Modulators of the Cystic Fibrosis Transmembrane Conductance Regulator Protein and Methods of Use” (AbbVie Global Enterprises Ltd., priority 2021, published 2024).

For assay [1], the target named is T1, F508del/F508del CFTR (Homo sapiens, UniProt P13569, DEL508-508).
T1 construct: cells isolated from CF patients with the homozygous mutation; endogenous in cells; host or cells: primary human bronchial epithelial (hBE) cells from CF patients homozygous for F508del
T1 sequence (P13569 with tags, fused parts or gaps DEL508-508): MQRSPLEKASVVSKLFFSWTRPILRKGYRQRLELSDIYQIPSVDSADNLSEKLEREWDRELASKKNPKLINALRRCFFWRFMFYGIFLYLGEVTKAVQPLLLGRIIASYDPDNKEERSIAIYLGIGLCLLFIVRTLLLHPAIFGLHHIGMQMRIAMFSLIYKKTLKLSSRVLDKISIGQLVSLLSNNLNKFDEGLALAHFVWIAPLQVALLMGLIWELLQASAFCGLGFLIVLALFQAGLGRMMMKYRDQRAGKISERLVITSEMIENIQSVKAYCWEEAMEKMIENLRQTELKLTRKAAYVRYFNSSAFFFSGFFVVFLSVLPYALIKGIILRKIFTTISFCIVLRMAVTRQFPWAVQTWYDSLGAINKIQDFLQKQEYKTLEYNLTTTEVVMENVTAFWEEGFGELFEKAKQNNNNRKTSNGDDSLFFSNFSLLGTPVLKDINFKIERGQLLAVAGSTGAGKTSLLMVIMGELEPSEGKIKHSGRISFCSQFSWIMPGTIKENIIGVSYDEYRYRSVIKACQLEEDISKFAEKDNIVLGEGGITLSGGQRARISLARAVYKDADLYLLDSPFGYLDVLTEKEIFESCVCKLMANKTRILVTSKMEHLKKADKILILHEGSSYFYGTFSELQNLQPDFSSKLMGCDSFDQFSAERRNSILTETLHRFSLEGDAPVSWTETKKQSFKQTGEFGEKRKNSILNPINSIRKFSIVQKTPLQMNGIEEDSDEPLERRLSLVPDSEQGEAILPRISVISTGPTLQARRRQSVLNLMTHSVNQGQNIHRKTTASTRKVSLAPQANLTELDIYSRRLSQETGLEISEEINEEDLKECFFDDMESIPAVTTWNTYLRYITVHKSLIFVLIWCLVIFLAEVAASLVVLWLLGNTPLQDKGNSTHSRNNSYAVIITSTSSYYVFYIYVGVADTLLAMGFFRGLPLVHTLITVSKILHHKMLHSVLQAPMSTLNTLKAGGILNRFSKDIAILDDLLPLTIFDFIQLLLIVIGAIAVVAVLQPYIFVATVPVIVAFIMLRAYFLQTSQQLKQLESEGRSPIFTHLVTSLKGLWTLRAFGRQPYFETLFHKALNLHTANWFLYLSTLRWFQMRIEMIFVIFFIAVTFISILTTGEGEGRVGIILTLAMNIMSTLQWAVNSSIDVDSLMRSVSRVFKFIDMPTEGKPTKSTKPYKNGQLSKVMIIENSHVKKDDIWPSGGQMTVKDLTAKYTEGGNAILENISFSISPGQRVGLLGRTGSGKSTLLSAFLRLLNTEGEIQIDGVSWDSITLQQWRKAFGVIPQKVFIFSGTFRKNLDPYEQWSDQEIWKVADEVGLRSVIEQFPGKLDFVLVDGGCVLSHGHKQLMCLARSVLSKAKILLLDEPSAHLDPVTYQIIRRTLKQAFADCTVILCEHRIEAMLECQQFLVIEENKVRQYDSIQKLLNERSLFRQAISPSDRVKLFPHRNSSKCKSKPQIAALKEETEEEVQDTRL
The assay is described as follows: Trans-Epithelial Current Clamp (TECC) assay using primary human bronchial epithelial cells. It counts as cell-based. To be noted: for Emax (% Dual): maximum percent activity relative to positive control (co-corrector 0.15 μM + potentiator 0.45 μM = 100%), primary hBE cells F508del/F508del; for EC50: primary hBE cells homozygous F508del/F508del, test C2 corrector with co-corrector and potentiator, 18-24 hours at 37° C., equivalent CFTR current (IEQ)/AUC. In short, it runs like this: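 F508del/F508del primary hBE cells grown 35 days at air-liquid interface were treated basolaterally with C2 correctors plus fixed co-corrector and potentiator for 18-24 h at 37° C. TECC-24 current clamp at 36.5° C in HEPES-buffered F-12 Coon's, pH 7.4; equivalent current IEQ=VT/RT, plus AUC between forskolin peak and bumetanide.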

The target in assay [2] is T2, F508delCFTR (Homo sapiens, UniProt P13569, DEL508-508).
T2 construct: expressed in transfected cells; host or cells: CFBE41o- human lung-derived epithelial cell line, doxycycline-inducible expression
T2 sequence (P13569 with tags, fused parts or gaps DEL508-508): as above
The assay is described as follows: Cell Surface Expression-Horse Radish Peroxidase (CSE-HRP) assay in CFBE41o-F508delCFTR-HRP cells. It counts as cell-based. The note with it: for EC50: CFBE41o-F508delCFTR-HRP cells, 18-24 hours at 33° C., luminescence; for Maximum % activity (with co-corrector) / Maximum % activity (without co-corrector): normalized to on-plate positive control corrector (2 μM). In short, it runs like this:
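CFBE41o- cells expressing F508delCFTR with HRP in the fourth exofacial loop were doxycycline-induced (0.5 μg/mL) for 68–72 h, then exposed to correctors for 18–24 h at 33 °C, with or without 2 μM co-corrector. Surface HRP was read by luminol luminescence, and % activity was normalized to the on-plate positive control; EC50 came from a variable-slope sigmoidal fit (8 points, 3-fold dilution, 20 or 30 μM top).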

Setting [3] is: without co-corrector, read-out: EC50 (without co-corrector).
Where [4] appears, read: with co-corrector (2 μM), read-out: EC50 (with co-corrector).

Each structure is given as a SMILES string. Like-named read-outs stand apart in the source and are kept apart here.

Consider `COc1ccc([C@@H]2C[C@]2(C(=O)NS(=O)(=O)c2cccc3nc(C)ccc23)c2cc(C)ccc2OC)cc1` (single isomer, unassigned) [Example 17], for which, in assay [1], the “Emax (% Dual)” value was determined as 296 % Dual and the half-maximal effective concentration (EC50) was 0.00066 µM. The EC50 in assay [2] (setting [3]) was 2.38 µM.
Consider `COc1ccc(C)cc1[C@@]1(C(=O)NS(=O)(=O)c2cccc3nc(C)ccc23)C[C@H]1c1cccnc1OC` (racemic) [Example 40, rac-(1r,2s)-1-(2-methoxy-5-methylphenyl)-2-(2-methoxypyridin-3-yl)-N-(2-methylquinoline-5-sulfonyl)cyclopropane-1-carboxamide], for which, in assay [1], the “Emax (% Dual)” value is recorded as 328 % Dual. Moreover, the EC50 in assay [1] is 0.0196 µM; in assay [2] (setting [4]) it was 0.749 µM; in assay [2] (setting [3]), 1.55 µM. For the same compound, the “Maximum % activity (with co-corrector)” value in assay [2] (with co-corrector (2 μM)) turned out to be 934%. Besides, in assay [2] (without co-corrector), the “Maximum % activity (without co-corrector)” value stood at 448%.
Take `CCOc1cccc([C@H]2C[C@@]2(C(=O)NS(=O)(=O)c2cccc3nc(C)ccc23)c2cc(C)ccc2OC)n1` [Example 55, (1S,2S)-2-(6-ethoxypyridin-2-yl)-1-(2-methoxy-5-methylphenyl)-N-(2-methylquinoline-5-sulfonyl)cyclopropane-1-carboxamide]: the “Emax (% Dual)” value in assay [1] was 341 % Dual. The EC50 in assay [1] was 0.00586 µM; in assay [2] (setting [4]), 0.339 µM; in assay [2] (setting [3]) it was 1 µM.
For the compound `COc1ccc(C)cc1[C@@]1(C(=O)NS(=O)(=O)c2cccc3nc(C)ccc23)C[C@H]1c1cccc(F)c1` (single isomer, unassigned) [Example 20], the “Emax (% Dual)” value in assay [1] came to 250 % Dual. Moreover, the figures for the EC50 in assay [1], in assay [2] (setting [4]) and in assay [2] (setting [3]) were 0.001 µM, 0.203 µM and 0.244 µM, respectively. The “Maximum % activity (without co-corrector)” value in assay [2] (without co-corrector, 2 µM) is 716%.
For the compound `COc1ccc(C)cc1[C@]1(C(=O)NS(=O)(=O)c2cccc3nc(C)ccc23)C[C@@H]1c1cnc(OC)c(Cl)c1` [Example 102, (1S,2R)-2-(5-chloro-6-methoxypyridin-3-yl)-1-(2-methoxy-5-methylphenyl)-N-(2-methylquinoline-5-sulfonyl)cyclopropane-1-carboxamide], in assay [1], the “Emax (% Dual)” value was 397 % Dual. For the same compound, the EC50 in assay [1] was 0.0327 µM; in assay [2] (setting [4]), 0.825 µM; in assay [2] (setting [3]), 2.3 µM.
As to `COc1cncc([C@@H]2C[C@]2(C(=O)NS(=O)(=O)c2cccc3nc(C)ccc23)c2cc(C)ccc2OC)n1` (single isomer, unassigned) [Example 74], the “Emax (% Dual)” value in assay [1] is reported as 222 % Dual. In addition, the EC50 in assay [1] was 0.222 µM; in assay [2] (setting [4]) it was 0.743 µM; in assay [2] (setting [3]), 1.29 µM. For the same compound, the “Maximum % activity (with co-corrector)” value in assay [2] (with co-corrector (2 μM)) is recorded as 545%. The “Maximum % activity (without co-corrector)” value in assay [2] (without co-corrector) amounted to 188%.
For the compound `COc1ccc(C)cc1[C@]1(C(=O)NS(=O)(=O)c2cccc3nc(C)ccc23)C[C@@H]1c1ccc(C(C)C)nc1` [Example 67, (1S,2R)-1-(2-methoxy-5-methylphenyl)-N-(2-methylquinoline-5-sulfonyl)-2-[6-(propan-2-yl)pyridin-3-yl]cyclopropane-1-carboxamide], in assay [1], the “Emax (% Dual)” value came to 174 % Dual. In addition, the EC50 in assay [1] was 0.0207 µM; in assay [2] (setting [4]) it was 1.61 µM; in assay [2] (setting [3]), 3.32 µM. Further, the “Maximum % activity (with co-corrector)” value in assay [2] (with co-corrector (2 μM)) came out at 989%. The “Maximum % activity (without co-corrector)” value in assay [2] (without co-corrector) was determined as 492%.
For the compound `COc1ccc(C)cc1[C@]1(C(=O)NS(=O)(=O)c2cccc3nc(C)ccc23)C[C@@H]1c1cccc(C(F)(F)F)c1` (single isomer, unassigned) [Example 23], in assay [1], the “Emax (% Dual)” value is 294 % Dual. Further, the 50% effective concentration (EC50) in assay [1] came out at 0.0062 µM; in assay [2] (setting [4]) it was 0.259 µM; in assay [2] (setting [3]), 0.327 µM.
